Experimental data from patent US12490743B2, “Method for treatment of crops” (Wobelea PTY LTD, priority 2019, dated 2025).
Values joined by “and” are separate entries in the source; they are usually repeats but may differ in a detail not shown here. Identical values can stand only once.

Columns and labels:
Erwinia carotovora [1] = assay: Curative activity: product-soaked discs laid on pathogen lawn on agar; assay type: cell-based; conditions: 0.8%, 24 hrs
Method: (§1) The fungal and bacterial pathogens Erwinia carotovora (bacterial) and Botrytis cinerea (fungal) were cultured on to Nutrient Agar (NA) and potato dextrose agar (PDA), respectively and incubated at ambient temperature until sporulating or well grown.
(§2) Multiple plates of PDA were inoculated with B. cinerea and allowed to sporulate. Multiple plates of NA were inoculated with E. carotovora and allowed to grow into a thick lawn.
(§3) Plates of PDA and NA were inoculated with fungal spores and bacterial cells, respectively, and allowed to grow into a lawn covering the agar surfaces. Three replicates were used for each product and each pH. Following the results from the preliminary tests, pH 4.0 and 7.0 were selected for all further product pH tests.
(§4) When the lawns were well grown and sporulating in the case of the fungal pathogen, five discs soaked with 200 uL of each product (sodium metabisulphite, sodium benzoate, WOB NP1, sodium sulphite, and WOB PH1) at appropriate pH levels were laid onto the sporulating surface or cell lawn surface for the fungal pathogen and the bacterial pathogen, respectively.
(§5) The plates were incubated at ambient temperature (14-25° C.). Inhibition zones were measured at 24 hours, 48 hours and 7 days.
(§6) Water was used unmodified and agars were made up of the 6 products using them at the pH resulting after dissolving to 0.8% concertation. Curative and preventative plates were prepared as described for Example 4 except that pHs were as dissolved (tank water not adjusted prior to dissolving/diluting product).
(§7) The curative and preventative experiments were repeated according to the method of Example 5 using the liquid WOB NP1 and WOB PH 1 formulations and the solid actives sodium metabisulphite, sodium benzoate and sodium sulphite.
(§8) The liquid WOB formulations were divided into 3 aliquots; one was used immediately—time zero; one stored at ambient temperate (15-27° C.) for one week and experiments repeated; one kept refrigerated (5° C.) for one week and experiments repeated.

Botrytis cinerea [2] = assay: as above; assay type: cell-based; conditions: 0.8%, 24 hrs
Method: as §1, §2, §3, §4, §5, §6, §7, §8

Erwinia carotovora [3] = assay: Preventative activity: pathogen plugs laid on agar containing product; assay type: cell-based; conditions: Example 5; unadjusted water pH; 0.8%; WOB as liquid formulation; 24 hrs
Method: as §1, §2
(§9) Plates of agar containing each product (Na metabisulphite, Na Benzoate, WOB NP1 of Example 3) and (Na sulphite, Na Benzoate, WOB PH1) at concentrations equivalent to 0.8% concentration were made up and poured into sterile disposal Petri dishes. Three replicates for each product and pH (4.0 and 7.0) were used.
(§10) Sterile agar discs covered with bacterial cells or fungal hyphae and spores were cut from respective plates of B. cinerea and E. carotovora. Three discs were each laid culture surface down onto the amended agar surface, incubated at ambient temperatures (14-25° C.) and observed for inhibition zones at 24 hours, 48 hours and 7 days.
as §6, §7, §8

Botrytis cinerea [4] = assay: as above; assay type: cell-based; conditions: Example 5; unadjusted water pH; 0.8%; WOB as liquid formulation; 24 hrs
Method: as §1, §2, §9, §10, §6, §7, §8

[5] = pH of products dissolved in tank water; assay type: physicochemical; conditions: 0.8%; for pH after active added in unamended tank water: tank water pH 6.25
Method: The water used throughout the projects is rainwater held in the dark in a plastic tank with stable pH value of 6.25. Controls were set up by replacing actives with tank water only.
Products were dissolved in tank water before application to the agar plants. Tank water (pH 6.25) was adjusted to the respective pH levels prior to adding the actives to determine the change in pH caused by the actives.
Tank water was adjusted to pH 4.0, 5.5, and 7.0 before adding sodium benzoate, sodium metabisulphite and WOB NP1, each at 0.8%.
Tank water was adjusted to pH 7.0, 7.5 and 8.4 before adding sodium benzoate, sodium sulphite and WOB PH1, each at 0.8%.

[6] = Example 5, unadjusted water pH, WOB as liquid formulation
[7] = tank water adjusted to pH 4.0 before product added
[8] = tank water adjusted to pH 5.5 before product added
[9] = tank water adjusted to pH 7.0 before product added
[10] = tank water adjusted to pH 7.5 before product added
[11] = tank water adjusted to pH 8.4 before product added

Compound	Curative activity on the growth of E. carotovora (Erwinia carotovora [1]; Example 4, pH 7.0)	Curative activity on the growth of B. cinerea (Botrytis cinerea [2]; Example 4, pH 4.0)	Curative activity on the growth of B. cinerea (Botrytis cinerea [2]; Example 4, pH 7.0)	Curative activity on the growth of B. cinerea (Botrytis cinerea [2]; [6])	Preventative activity on the growth of E. carotovora (Erwinia carotovora [3])	Preventative activity on the growth of B. cinerea (Botrytis cinerea [4])	pH of water after product added [5, 7]	pH of water after product added [5, 8]	pH of water after product added [5, 9]	pH of water after product added [5, 10]	pH of water after product added [5, 11]	pH after active added in unamended tank water [5]	Curative activity on the growth of E. carotovora (Erwinia carotovora [1]; Example 4, pH 4.0)	Curative activity on the growth of E. carotovora (Erwinia carotovora [1]; [6])
O=C([O-])c1ccccc1.[Na+] [Na Benzoate, sodium benzoate]	No effect	No obvious effect	No effect	No obvious effect	No obvious effect	No obvious effect	6.15	6.34	6.60 and 6.74	6.80	6.85	4.78		
O=S([O-])S(=O)(=O)[O-].[Na+].[Na+] [Na metabisulphite, sodium metabisulphite]		No effect		No obvious effect	No obvious effect	No obvious effect	3.75	5.52	6.14			4.74	No effect	No obvious effect
O=S([O-])[O-].[Na+].[Na+] [Na sulphite, sodium sulphite]			No effect						6.78	6.78	6.99	5.24		
